Entries after “also recorded” stand apart in the source; their conditions may differ.
Assays:
[1] = tested on: neuromuscular organoids (NMOs); assay: Microelectrode array (MEA) recording of NMO electrical activity; assay type: cell-based, human; conditions: for local (single electrode) firings / synchronous network activity (paired electrode spikes): NMDA and 5-HT stimulation at day 50; for rhythmic activity (central pattern generator-like): NMDA/5-HT cocktail; for activity triggered by the drugs (fictive locomotion paradigm): cocktail of NMDA (10 uM) and 5-HT (40 uM); for suppression of electrical activity: APV 50 uM and CNQX 40 uM applied together
[2] = tested on: neuromuscular organoids (NMOs); assay: Contractile activity of NMOs before and after curare; assay type: cell-based, human; conditions: curare 10 uM, before and after treatment
Description: Video segments of equal length were recorded using a bright-field microscope (DMI1, Leica) in 3 different regions of the same organoid using 20× zoom. To quantify muscle contractions, each movie was analyzed separately where each visible contraction was counted and then averaged for the whole organoid.
To analyze and map organoid muscular contraction, bright field time series images were automatically thresholded using ImageJ software to identify organoid border. A binary stack was created and contractile regions were visually identified. Regions of interest were defined and variations of organoid area (in pixel), used as a proxy of physical contraction, were plotted over the time series.

What does the source list for `NCCc1c[nH]c2ccc(O)cc12` [5-HT, Serotonin]?
local (single electrode) firings [1]: increased single firings; also recorded: notable increase of local firings; synchronous network activity (paired electrode spikes) [1]: increase in paired electrode spikes; also recorded: dramatic increase of synchronous network activity; rhythmic activity (central pattern generator-like) ([1]; day 50 NMOs): activity became rhythmic; also recorded: produced rhythmic bursts of electrical activity; activity triggered by the drugs (fictive locomotion paradigm) [1]: instantaneously triggered strong activity

How did the “suppression of electrical activity” value [1] turn out when `N[C@@H](CCCP(=O)(O)O)C(=O)O` [APV] was run?
The value was “reversibly suppressed nearly all electrical activity”.

With `N#Cc1cc2[nH]c(=O)c(=O)[nH]c2cc1[N+](=O)[O-]` [CNQX] as the compound, how does the “suppression of electrical activity” value [1] read?
Its value is “reversibly suppressed nearly all electrical activity”.

Which “local (single electrode) firings” value [1] does the source give for `CN[C@H](CC(=O)O)C(=O)O` [NMDA] here?
The value was “increased single firings; also recorded: notable increase of local firings”.

What about the “synchronous network activity (paired electrode spikes)” value [1] of the same compound?
The value was “increase in paired electrode spikes; also recorded: dramatic increase of synchronous network activity”.

What about the “rhythmic activity (central pattern generator-like)” value ([1]; day 50 NMOs) of the same compound?
Its value is “activity became rhythmic; also recorded: produced rhythmic bursts of electrical activity”.

And the “activity triggered by the drugs (fictive locomotion paradigm)” value [1]?
The value was “instantaneously triggered strong activity”.

For `N[C@@H](CCC(=O)O)C(=O)O` [glutamate], which “increase of spontaneous activity” value ([1]; acute glutamate 50 uM, day 30 and day 50 organoids) is on record?
Its value is “approximately 12 fold”.

How did the “suppression of NMDA/5-HT triggered activity” value [1] turn out when `NC1=N[C@H](O)[C@H]2[C@H]3O[C@]4(O)O[C@@H]([C@@H](O)[C@@]2(N1)[C@@H]4O)[C@]3(O)CO` [tetrodotoxin] was run?
Its value is “reversibly suppressed”.

How did the “contraction of the skeletal muscles (contractile activity of NMOs)” value [2] turn out when curare was run?
Its value is “blocked the contraction of the skeletal muscles; also recorded: organoid relaxation”.

What about the “block of acetylcholine-stimulated electrical activity” value ([1]; curare 10 uM, day 50 NMOs) of the same compound?
The value was “rapidly and reversibly blocked”.
